Assay results reported in the OligoGym collection.
After the bases stand the sugars from the 5' end (letter, count) and the backbone: PS all phosphorothioate, else s phosphorothioate and o phosphodiester by linkage. Methylation of C is not given here. e = 2'-O-(2-methoxyethyl) (MOE); k = constrained ethyl (cEt); d = 2'-deoxy (DNA); m = 2'-O-methyl

Biological target: HSD17B13
Conditions: ASO, HepaRG

Sequence	target mRNA inhibition (1 µM) [%]	further results
TCTAAAGTGCTGGTTG (sugars k3 d10 k3, PS)	34	
TCTAAATACCCTTGGT (sugars k3 d10 k3, PS)	26	
TCTAAGTTAGCCCCCA (sugars kkdddddddddkekek, PS)	19	
TCTACACTAATATTGA (sugars k3 d10 k3, PS)	21	
TCTAGGATGATGTTCA (sugars k3 d10 k3, PS)	64	
TCTATAGCTAAGTATA (sugars k3 d10 k3, PS)	0	
TCTATCAGACTTCTTA (sugars k3 d10 k3, PS)	49	
TCTCAAGGAGTACTTC (sugars k3 d10 k3, PS)	80	target mRNA inhibition (0.02 µM): 26%; target mRNA inhibition (0.078 µM): 32%; target mRNA inhibition (0.313 µM): 58%; target mRNA inhibition (1.25 µM): 82%; target mRNA inhibition (5 µM): 91%
TCTCTGGGACCAAGGA (sugars k3 d10 k3, PS)	56	
TCTCTTGACAATGGTT (sugars k3 d10 k3, PS)	70	target mRNA inhibition (0.02 µM): 2%; target mRNA inhibition (0.078 µM): 14%; target mRNA inhibition (0.313 µM): 44%; target mRNA inhibition (1.25 µM): 86%; target mRNA inhibition (5 µM): 86%
TCTGGGACCAAGGATA (sugars k3 d10 k3, PS)	30	
TCTTAAACCTTCCCTG (sugars k3 d10 k3, PS)	21	
TCTTAAGAGAAGGTGC (sugars k3 d10 k3, PS)	39	
TCTTAGCTGTGCACTC (sugars k3 d9 k3 e1, PS)	52	
TCTTATGTAATAGCCA (sugars k3 d10 k3, PS)	77	target mRNA inhibition (0.02 µM): 0%; target mRNA inhibition (0.078 µM): 2%; target mRNA inhibition (0.313 µM): 35%; target mRNA inhibition (1.25 µM): 74%; target mRNA inhibition (5 µM): 91%
TCTTCTCTTGGGTCCA (sugars k3 d10 k3, PS)	59	
TCTTGACAATGGTTGA (sugars k3 d10 k3, PS)	75	
TCTTGACAATGGTTGC (sugars k3 d1 m1 d8 k3, PS)	67	target mRNA inhibition (0.02 µM): 25%; target mRNA inhibition (0.078 µM): 16%; target mRNA inhibition (0.313 µM): 39%; target mRNA inhibition (1.25 µM): 60%; target mRNA inhibition (5 µM): 87%
TCTTGACAATGGTTGC (sugars k3 d9 k3 e1, PS)	77	target mRNA inhibition (0.02 µM): 0%; target mRNA inhibition (0.078 µM): 0%; target mRNA inhibition (0.313 µM): 11%; target mRNA inhibition (1.25 µM): 46%; target mRNA inhibition (5 µM): 79%

Sequence	target mRNA inhibition (1 µM) [%]	further results
TCTTGACAATGGTTGC (sugars k3 d10 k3, PS)	77	
TCTTGACAATGGTTGC (sugars kkdddddddddkekek, PS)	37	
TGAAAACTCAGCCAGC (sugars k3 d10 k3, PS)	77	target mRNA inhibition (0.02 µM): 15%; target mRNA inhibition (0.078 µM): 33%; target mRNA inhibition (0.313 µM): 65%; target mRNA inhibition (1.25 µM): 80%; target mRNA inhibition (5 µM): 95%
TGAAATCTTGTGTAAC (sugars k3 d10 k3, PS)	43	
TGAACCGTATTCCCAA (sugars k3 d10 k3, PS)	76	target mRNA inhibition (0.02 µM): 26%; target mRNA inhibition (0.078 µM): 8%; target mRNA inhibition (0.313 µM): 59%; target mRNA inhibition (1.25 µM): 81%; target mRNA inhibition (5 µM): 93%
TGAAGCCACTGTGACG (sugars k3 d10 k3, PS)	49	
TGAAGTTAGTATAGTT (sugars k3 d10 k3, PS)	43	
TGAAGTTAGTATAGTT (sugars kkdddddddddkekek, PS)	46	
TGACAATGGTTGATAG (sugars k3 d1 m1 d8 k3, PS)	42	
TGACAATGGTTGCCAC (sugars k3 d10 k3, PS)	40	
TGACAATGGTTGCCAC (sugars kkdddddddddkekek, PS)	38	
TGACATAACTTCATAG (sugars k3 d10 k3, PS)	51	
TGACATAGACATGTGT (sugars k3 d10 k3, PS)	42	
TGACTGCTGCTAGTGC (sugars k3 d10 k3, PS)	50	
TGAGAGTATAAATGGC (sugars k3 d10 k3, PS)	67	
TGATAAAATAGGGTGC (sugars k3 d10 k3, PS)	44	
TGATAATTTGGTGTCA (sugars k3 d10 k3, PS)	3	
TGATACACCAATGCAG (sugars k3 d10 k3, PS)	44	
